Test results from BigSolDB 2.1.

C[N+](C)(C)CC(=O)[O-]
Conditions | solubility (mole fraction)
in DMSO, 288.51 K | 0.001
in DMSO, 292.73 K | 0.00116
in DMSO, 298.34 K | 0.00139
in DMSO, 305.16 K | 0.00172
in DMSO, 308.53 K | 0.0019
in DMSO, 313.2 K | 0.00219
in DMSO, 318.16 K | 0.00253
in DMSO, 322.88 K | 0.00291
in DMSO, 327.87 K | 0.00334
in DMSO, 333.58 K | 0.00391
in acetic acid, 292.83 K | 0.23
in acetic acid, 297.84 K | 0.239
in acetic acid, 302.28 K | 0.252
in acetic acid, 308.31 K | 0.268
in acetic acid, 312.79 K | 0.279
in acetic acid, 317.76 K | 0.298
in acetic acid, 322.58 K | 0.306
in acetic acid, 328.87 K | 0.327
in acetic acid, 333.12 K | 0.344
in ethylene glycol, 283.42 K | 0.102
in ethylene glycol, 288.53 K | 0.109
in ethylene glycol, 292.46 K | 0.117
in ethylene glycol, 298.03 K | 0.125
in ethylene glycol, 303.87 K | 0.137
in ethylene glycol, 308.52 K | 0.145
in ethylene glycol, 314.59 K | 0.161
in ethylene glycol, 318.19 K | 0.167
in ethylene glycol, 323.98 K | 0.183
in ethylene glycol, 328.33 K | 0.192
in isopentanol, 286.47 K | 0.000166
in isopentanol, 289.13 K | 0.000185
in isopentanol, 293.93 K | 0.000225
in isopentanol, 298.25 K | 0.000269
in isopentanol, 302.72 K | 0.000316
in isopentanol, 307.37 K | 0.000378
in isopentanol, 314.06 K | 0.000477
in isopentanol, 318.23 K | 0.000556
in isopentanol, 322.6 K | 0.000646
in n-pentanol, 285.88 K | 0.000216
in n-pentanol, 289.5 K | 0.000249
in n-pentanol, 294.44 K | 0.000301
in n-pentanol, 299.59 K | 0.000368
in n-pentanol, 304.38 K | 0.000436
in n-pentanol, 309.45 K | 0.000523
in n-pentanol, 313.8 K | 0.000609
in n-pentanol, 318.18 K | 0.000705
in n-pentanol, 323.02 K | 0.000822
